How the values were obtained:
[1] = AUCN in Beagle dog at 3 mg/kg, po; format: ADME, organism-based, Canis lupus familiaris; conditions: in vivo
Cytochrome P450 1A2 = molecular target: T1, Cytochrome P450 1A2 (Homo sapiens, UniProt P05177); experiment: Induction of CYP1A2 in human hepatocytes upto 20 uM; format: ADME, cell-based
T1 sequence (P05177 whole entry): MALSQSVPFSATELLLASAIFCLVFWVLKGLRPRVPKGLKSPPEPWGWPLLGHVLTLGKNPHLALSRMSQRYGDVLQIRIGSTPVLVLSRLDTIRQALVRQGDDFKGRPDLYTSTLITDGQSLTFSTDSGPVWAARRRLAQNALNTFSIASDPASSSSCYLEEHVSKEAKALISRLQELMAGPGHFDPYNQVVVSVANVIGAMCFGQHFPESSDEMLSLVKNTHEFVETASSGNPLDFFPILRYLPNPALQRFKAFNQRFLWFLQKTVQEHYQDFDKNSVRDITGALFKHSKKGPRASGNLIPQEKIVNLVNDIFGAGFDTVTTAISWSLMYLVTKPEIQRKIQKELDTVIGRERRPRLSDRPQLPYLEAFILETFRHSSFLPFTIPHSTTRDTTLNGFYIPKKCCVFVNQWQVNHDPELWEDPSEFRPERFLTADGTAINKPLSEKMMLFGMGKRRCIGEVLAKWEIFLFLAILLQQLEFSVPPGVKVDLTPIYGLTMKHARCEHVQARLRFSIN

[2] = Ratio of drug uptake in rat brain to plasma at 3 mg/kg, po measured after 8 hrs; format: ADME, organism-based; conditions: read-out: BPR
[3] = Stability in dog hepatocytes assessed as parent compound remaining at 10 uM incubated for 120 mins; format: ADME, cell-based, Canis lupus familiaris, Hepatocyte; conditions: read-out: Stability
IKs (KCNQ1) = molecular target: T2, IKs (KCNQ1) (Homo sapiens, UniProt P51787); experiment: Inhibition of IKs (unknown origin) at 30 uM
T2 sequence (P51787 whole entry): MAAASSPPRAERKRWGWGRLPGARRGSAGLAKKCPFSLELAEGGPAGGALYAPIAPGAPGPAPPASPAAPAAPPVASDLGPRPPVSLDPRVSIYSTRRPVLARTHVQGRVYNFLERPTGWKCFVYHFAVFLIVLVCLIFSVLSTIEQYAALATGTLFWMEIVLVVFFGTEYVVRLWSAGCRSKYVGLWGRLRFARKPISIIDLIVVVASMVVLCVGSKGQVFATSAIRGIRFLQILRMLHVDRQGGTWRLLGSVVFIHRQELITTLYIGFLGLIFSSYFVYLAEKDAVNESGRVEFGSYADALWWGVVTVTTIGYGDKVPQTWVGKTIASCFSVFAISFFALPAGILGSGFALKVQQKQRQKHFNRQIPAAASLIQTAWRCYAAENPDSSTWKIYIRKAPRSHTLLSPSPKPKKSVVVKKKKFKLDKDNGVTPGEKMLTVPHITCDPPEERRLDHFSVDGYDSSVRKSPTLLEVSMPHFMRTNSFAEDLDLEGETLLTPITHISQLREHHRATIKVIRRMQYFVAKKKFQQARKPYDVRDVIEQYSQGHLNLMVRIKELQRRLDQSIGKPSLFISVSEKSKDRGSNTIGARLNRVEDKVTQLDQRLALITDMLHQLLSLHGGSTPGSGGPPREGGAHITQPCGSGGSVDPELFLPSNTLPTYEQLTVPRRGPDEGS

AUC/dose [1]: 14.2 µM·kg·h/mg
Activity (Cytochrome P450 1A2): Not Active
Kp at 8 h [2]: 1.84
remaining at 2 h, 10 µM [3]: 91%
inhibition at 30 µM (IKs (KCNQ1)): < 50%
SMILES: CCNC1=N[C@@H]2[C@@H](O)[C@H](O)[C@@H](C(F)F)O[C@@H]2S1

Reference: ChEMBL document CHEMBL4354805, “Discovery of MK-8719, a Potent O-GlcNAcase Inhibitor as a Potential Treatment for Tauopathies” (J Med Chem, 2019)
